Source: US10123985B2, “Therapeutic strategies for treating mitochondrial disorders” (Whitehead Institute for Biomedical Research, priority 2015, dated 2018)
“Also recorded” adds a separate entry of the source.

Legend:
[1] = tested on: 143B CytB cells; test: Proliferation assay of respiration-incompetent 143B CytB cybrid cells; type: cell-based; conditions: media supplemented with the substance; no pyruvate unless tested, uridine present
Procedure: FL5.12 cells were cultured in the same medium and supplemented with 5 μg/mL recombinant mouse IL-3 (R&D Systems). […] All cells incubated at 37° C. with 5% CO2.
Adherent cell lines growing in log phase were trypsinized, counted, and plated onto 6 well dishes (Corning) in 2 mL complete DMEM and incubated overnight. […] The following day, one plate of cells was counted to determine the initial cell count at the time of treatment. Cells were washed 2 times with 2 mL phosphate buffered saline (PBS) and 4 mL media premixed with the indicated treatments was added. FL5.12 cells, a suspension cell line, were washed 2 times in PBS and added directly to media containing the indicated treatments and 5 μg/mL recombinant mouse IL-3. Proliferation rate assay media was DMEM without pyruvate containing 10% dialyzed FBS, penicillin-streptomycin, and 0.1 mg/mL uridine, unless otherwise noted. […] Cells were counted using Cellometer Auto T4 Plus Cell Counter (Nexcelom Bioscience). Proliferation rate was determined using the following formula: Proliferation Rate (Doublings per day)=(log2(Final cell count (day 5)/Initial cell count (day 1))/4 (days)

[2] = tested on: 143B cells; test: 13C asparagine labelling, GCMS of aspartate and released asparagine; type: cell-based
Procedure: FIG. 26. […] (A) Proliferation rate was measured after 4 days in DMEM without pyruvate and the indicated media conditions. Untr; Untreated. AKB; 1 mM alpha-ketobutyrate. Asp; 20 mM aspartate. Asn; asparagine, with the indicated concentrations. (B) GCMS measurement of intracellular levels of aspartate after 24 hours from the indicated treatment conditions. Aspartate levels are shown as the log2 of the measured total ion count (TIC). (C) The proliferation rate from FIG. 26A and the aspartate levels from FIG. 26B were graphed against one another to show a correlation between aspartate levels and proliferation rate. Grey triangles are the untreated conditions, blue squares are the AKB conditions, and green dots are the 1 mM ASN conditions. (D) GCMS measurement of intracellular aspartate levels after a 24-hour incubation in untreated media or media treated with 1 mM ^13C asparagine. The bars are split to show the fraction of aspartate that is unlabeled (M+0) and the fraction of aspartate that is labeled with 4 ^13C carbons (M+4). (E) GCMS measurement of unlabeled (M+0) asparagine released into the media (de novo produced asparagine) after a 24-hour incubation in untreated media or media treated with 1 mM ^13C asparagine.
The mechanism by which extracellular asparagine treatment can restore intracellular aspartate levels was also investigated. First, we treated 143B cells with 1 mM asparagine containing four ^13C carbon atoms. […] The small fraction containing labeled aspartate was likely from ^13C aspartate contamination in the ^13C asparagine added to the media. […] One plausible mechanism by which providing the cells with extracellular asparagine would decrease intracellular aspartate consumption is through product inhibition of asparagine synthetase (ASNS) activity. Decreased ASNS activity would decrease aspartate consumption and therefore increased aspartate levels. To test this, we measured the release of unlabeled asparagine in the media of untreated cells or cells treated with 1 mM ^13C asparagine. […]

[3] = tested on: 143B cells; test: Amino acid and TCA cycle metabolite GC-MS analysis, 143B cells; type: cell-based; conditions: for TCA metabolite, aspartate and glutamate pool sizes: wild-type 143B cells, respiration inhibitor alone
Procedure: 143B and 143B CytB cells were seeded at 400,000 cells/well in 6 well dishes overnight. The following day, cells were washed 2 times in PBS and media was changed to proliferation assay media with or without the indicated treatments. […] Soluble content was then dried under nitrogen gas. Polar samples were derivatized and measured as detailed in (Lewis). Relative metabolite abundances were determined by integrating ion peak area (Metran) and normalized to norvaline internal extraction standard.

[4] = tested on: A172, H1299, HeLa, U87, FL5.12, and MEF cell lines; test: Proliferation assay of a panel of cell lines treated with respiration inhibitors; type: cell-based; conditions: respiration inhibitor alone
Procedure: (§1) 143B, A172, H1299, HeLa, U87 and MEF cells were cultured in Dulbecco's Modified Eagle's Medium (DMEM) (Gibco) supplemented with 10% fetal bovine serum (FBS) and penicillin-streptomycin. FL5.12 cells were cultured in the same medium and supplemented with 5 μg/mL recombinant mouse IL-3 (R&D Systems). 143B cybrid cell lines (WT Cybrid and CytB) were cultured in DMEM with 10% FBS, penicillin-streptomycin, and 0.1 mg/mL uridine. All cells incubated at 37° C. with 5% CO2.
(§2) Adherent cell lines growing in log phase were trypsinized, counted, and plated onto 6 well dishes (Corning) in 2 mL complete DMEM and incubated overnight. Initial seeding density was 2E4 cells per well for 143B, A172, H1299, HeLa, 143B WT Cybrid, and MEFs and 3E4 cells for 143B CytB and U87 cells. The following day, one plate of cells was counted to determine the initial cell count at the time of treatment. Cells were washed 2 times with 2 mL phosphate buffered saline (PBS) and 4 mL media premixed with the indicated treatments was added. FL5.12 cells, a suspension cell line, were washed 2 times in PBS and added directly to media containing the indicated treatments and 5 μg/mL recombinant mouse IL-3. Proliferation rate assay media was DMEM without pyruvate containing 10% dialyzed FBS, penicillin-streptomycin, and 0.1 mg/mL uridine, unless otherwise noted. For these cell lines at these seeding densities it was determined that for 4 days the cells maintained logarithmic proliferation (data not shown), therefore final cell counts were measured 4 days after treatment. Cells were counted using Cellometer Auto T4 Plus Cell Counter (Nexcelom Bioscience). Proliferation rate was determined using the following formula: Proliferation Rate (Doublings per day)=(log2(Final cell count (day 5)/Initial cell count (day 1))/4 (days)

[5] = tested on: Raji lymphoma and KMS-26 multiple myeloma cells; type: cell-based, human; conditions: 5-day treatment
Procedure: […]. Media was changed 24 hours after transfection.

[6] = tested on: Jurkat cells; test: Proliferation assay (Cell Titer Glo, 5 days) of wild type and knock-out Jurkat cells; type: cell-based, human; conditions: 5-day treatment
Procedure: sgRNAs (oligonucleotide sequences are indicated above) were cloned into lentiCRISPR-v1 linearized with BsmBI by Gibson Assembly (NEB). sgRNA expressing vector along with lentiviral packaging vectors Delta-VPR and CMV VSVG were transfected into HEK-293T cells using the XTremeGene 9 transfection reagent (Roche). Similarly, for overexpression cell lines, cDNA vectors along with retroviral packaging vectors gag-pol and CMV VSV-G were transfected into HEK-293T cells. Media was changed 24 hours after transfection.

[7] = tested on: 143B cells; test: Proliferation assay of wild-type 143B cells treated with respiration inhibitors; type: cell-based; conditions: for Proliferation of rotenone treated 143B cells: asparagine
Procedure: as §1, §2

[8] = tested on: 143B cells; test: Measurement of NAD+/NADH (NAD/NADH Glo) in 143B cells with respiration inhibitors; type: cell-based; conditions: oligomycin with or without FCCP
Procedure: NAD^+/NADH measurements were done using a modified version of manufacturer instructions of NAD/NADH Glo Assay (Promega). Cells were plated and treated as for proliferation assays and cell extracts were taken 6 hours after treatment. For extraction, cells were quickly washed 3 times in ice cold PBS, extracted in 100 μL ice cold lysis buffer (1% Dodecyltrimethylammonium bromide (DTAB) in 0.2 N NaOH diluted 1:1 with PBS), and immediately frozen at −80° C. To measure NADH, 20 μL of sample was moved to PCR tubes and incubated at 75° C. for 30 min, where the basic conditions will selectively degrade NAD^+. To measure NAD^+, 20 μL of the samples was moved to PCR tubes containing 20 μL lysis buffer and 20 μL 0.4 N HCl and incubated at 60° C. for 15 min, where acidic conditions will degrade NADH. Following incubations, samples were allowed to equilibrate to room temperature and then quenched by neutralizing with 20 μL 0.25 M Tris in 0.2 N HCl (NADH) or 20 μL 0.5 M Tris base (NAD^+). Manufacturer instructions were followed thereafter to measure NAD^+/NADH.

[9] = tested on: 143B cells; test: Mitochondrial oxygen consumption (Seahorse XF24), cells treated with respiration inhibitors; type: cell-based; conditions: oligomycin with or without FCCP
Procedure: Oxygen consumption rates were determined on a Seahorse Bioscience Extracellular Flux Analyzer (XF24). Cells were plated in Seahorse Bioscience 24 well plates at 6E4 cells per well in 100 μL complete DMEM, allowed to attach for 1 hour, and 500 μl complete DMEM was added before overnight incubation. The following day cells were washed 2 times in assay media: DMEM without phenol red or pyruvate containing 0.5% dialyzed FBS and 0.1 mg/mL uridine at pH 7.4 and incubated in 500 μL of the same media for the assay.

[10] = tested on: A549 lung carcinoma xenografts; test: A549 xenograft study with metformin; type: in vivo, nude mice
Procedure: FIG. 27. In vivo mitochondrial inhibition inhibits cellular proliferation and decreases intracellular growth rate. (A) A549 xenografts in nude mice were treated with varying doses of the mitochondrial inhibitor, metformin, once a day by oral gavage at the indicated concentrations. LCMS measurement of (B) serum and (C) tumor metformin concentration for the indicated metformin treatment conditions. (D) GCMS measurement of intracellular aspartate levels in the tumors following 10 days of the indicated treatment. Aspartate levels are shown as aspartate total ion count (TIC) normalized to leucine TIC.
An in vivo correlation between mitochondrial inhibition and growth inhibition, and further, a correlation between the degree of growth inhibition and intracellular aspartate levels were shown in a xenograft study. A549 lung carcinoma cells were xenografted into nude mice, and the cells were allowed to grow until they formed a tumor 50 mm^3 in volume. When the tumors reached 50 mm^3, the mice were randomly sorted into three groups and treated once a day by oral gavage with vehicle or the mitochondrial inhibitor metformin (500 mg/kg or 1500 mg/kg).

[11] = 1 mM 13C asparagine, 24-hour incubation
[12] = metformin 500 mg/kg or 1500 mg/kg once a day by oral gavage

Nc1nc2nc[nH]c2c(=O)[nH]1 [guanine, reference compound]
Proliferation rate of 143B CytB cells [1]: somewhat toxic

NC(=O)C[C@H](N)C(=O)O [^13C asparagine]
Intracellular aspartate levels [2, 11]: did increase intracellular aspartate levels
Labelling of intracellular aspartate pool [2, 11]: nearly all of the intracellular aspartate pool was unlabeled (M+0)

COC(=O)CCC(=O)C(=O)OC [dimethyl α-ketoglutarate, reference compound]
Proliferation rate of 143B CytB cells [1]: able to restore some proliferation to 143B CytB cells, albeit at a much lower capacity than aspartate

C=C(C)[C@H]1Cc2c(ccc3c2O[C@@H]2COc4cc(OC)c(OC)cc4[C@@H]2C3=O)O1 [rotenone, reference compound]
TCA metabolite, aspartate and glutamate pool sizes [3]: decreases in TCA metabolites and aspartate, but not glutamate
Proliferation of cell line panel [4]: blocked proliferation

antimycin [reference compound]
TCA metabolite, aspartate and glutamate pool sizes [3]: decreases in TCA metabolites and aspartate, but not glutamate
Viability of GOT1-null KMS-26 and Raji cells with other mitochondrial toxins [5]: GOT1-null KMS-26 and Raji cells die
Proliferation of cell line panel [4]: blocked proliferation
Sensitivity of GOT1-null versus wild-type cells to other ETC inhibitors [6]: GOT1-null cells die; also recorded: substantially more sensitive

N#CC(C#N)=NNc1ccc(OC(F)(F)F)cc1 [FCCP, carbonyl cyanide-4-(trifluoromethoxy)phenylhydrazone, reference compound]
Proliferation rate of oligomycin treated 143B cells ([7]; oligomycin with or without FCCP): increased proliferation of oligomycin treated cells
NAD+/NADH ratio of oligomycin treated 143B cells [8]: increased
Oxygen consumption of oligomycin treated cells [9]: increased

O=c1[nH]cnc2nc[nH]c12 [hypoxanthine, reference compound]
Proliferation rate of 143B CytB cells [1]: no effect on proliferation

CC[C@H]1/C=C/C=C/C[C@@H](C)[C@H](O)[C@@](C)(O)C(=O)[C@@H](C)[C@H](O)[C@@H](C)C(=O)[C@@H](C)[C@H](O)[C@@H](C)/C=C/C(=O)O[C@@H]2[C@H](C)[C@H](CC1)O[C@]1(CC[C@H](C)[C@H](C[C@@H](C)O)O1)[C@H]2C [oligomycin, reference compound]
TCA metabolite, aspartate and glutamate pool sizes [3]: decreases in TCA metabolites and aspartate, but not glutamate
Proliferation of cell line panel [4]: blocked proliferation

CN(C)C(=N)N=C(N)N [metformin]
Normalized intracellular aspartate levels in tumors ([10]; 10 days of treatment, aspartate TIC normalized to leucine TIC): decrease in a dose-dependent manner
Tumor concentration of metformin ([10]; escalating doses of metformin): increased tumor concentration of metformin
Serum concentrations of metformin [10, 12]: at concentrations that would be therapeutically relevant and tolerable in humans
Tumor growth [10, 12]: dose dependently inhibited tumor growth
Sensitivity of GOT1-null versus wild-type cells to other ETC inhibitors [6]: substantially more sensitive; also recorded: GOT1-null cells die

C/C=C(\C)[C@H](O)[C@H](C)/C=C(C)/C=C/C/C(C)=C/Cc1nc(OC)c(OC)c(O)c1C [piericidin, reference compound]
Viability of GOT1-null KMS-26 and Raji cells with other mitochondrial toxins [5]: GOT1-null KMS-26 and Raji cells die
Sensitivity of GOT1-null versus wild-type cells to other ETC inhibitors [6]: GOT1-null cells die; also recorded: substantially more sensitive

NC(=O)C[C@H](N)C(=O)O [asparagine]
Proliferation of rotenone treated 143B cells ([7]; high doses of rotenone): not able to restore proliferation
Proliferation of rotenone treated 143B cells ([7]; low doses of rotenone): sufficient to restore proliferation; also recorded: restores intracellular aspartate levels and proliferation in rotenone treated cells
Restoration of intracellular aspartate compared to AKB ([3]; rotenone treated 143B cells, 1 mM asparagine): incomplete compared to AKB
Intracellular aspartate levels ([3]; rotenone treated 143B cells, 24 hours, AKB or 1 mM asparagine): increased intracellular aspartate; also recorded: restores intracellular aspartate levels and proliferation in rotenone treated cells
Release of unlabeled (de novo produced) asparagine into the media ([2]; 1 mM 13C asparagine versus untreated, 24 hours): produce less asparagine
